The text below walks through data of patent US7368287B2, “Use of L-α-lysophosphatidylcholine to obtain the differentiation of monocytes into mature dendritic cells in vitro” (Biomerieux, priority 2002, dated 2008).

One assay concerns the target T1, PPARγ (Homo sapiens, UniProt P37231).
T1 construct: After having harvested the cells, the nuclear proteins were extracted with the Nuclear extract Kit (Sigma); endogenous in cells; host or cells: monocytes undergoing differentiation into dendritic cells (nuclear extract)
T1 sequence (P37231 1-505): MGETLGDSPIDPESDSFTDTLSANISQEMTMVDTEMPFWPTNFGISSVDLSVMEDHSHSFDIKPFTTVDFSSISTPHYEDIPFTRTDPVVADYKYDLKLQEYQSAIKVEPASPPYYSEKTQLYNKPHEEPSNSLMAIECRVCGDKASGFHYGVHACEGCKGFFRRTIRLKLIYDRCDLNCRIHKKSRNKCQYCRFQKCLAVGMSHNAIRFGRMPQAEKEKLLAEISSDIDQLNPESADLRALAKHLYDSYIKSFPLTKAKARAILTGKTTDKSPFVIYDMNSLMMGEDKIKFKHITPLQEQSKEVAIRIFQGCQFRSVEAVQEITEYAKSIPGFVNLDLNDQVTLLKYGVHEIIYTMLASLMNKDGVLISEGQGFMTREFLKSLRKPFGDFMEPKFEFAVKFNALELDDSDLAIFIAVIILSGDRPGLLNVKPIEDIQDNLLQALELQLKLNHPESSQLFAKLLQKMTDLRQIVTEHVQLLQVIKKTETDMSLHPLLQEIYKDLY
In words: PPAR binding activity by gel shift on nuclear proteins of treated monocytes. The assay is classed as cell-based. The procedure:
Next, the inventors investigated the transcription factors involved in the maturation process induced by LPC. In order to determine whether PPARs are involved in the LPC-induced maturation, the ability of the two transcription factors PPARγ and PPARδ to bind was analyzed using the gel shift technique. 3 isotypes of PPAR nuclear receptors (peroxisome proliferator-activated receptor) exist: α, γ and δ. PPARγs are the targets for molecules of the thiazolidinedione class, such as ciglitizone, used in the treatment of type II diabetes. PPARδs have a broader expression and can be repressors of PPARγs. The monocytes undergoing differentiation were incubated for two hours with a solution of LPC (40 μM) (“LPC” cells). “Control” cells are also obtained in the absence of LPC in the culture medium. After having harvested the cells, the nuclear proteins were extracted with the Nuclear extract Kit (Sigma). The nuclear proteins were then brought into contact with a ratioactively labeled probe containing a response element recognized by PPARs. […] The PPAR binding activity was determined by measuring the intensity of these bands. These activities are expressed as a percentage with respect to the “control” cells. […]
The activity of the PPARγ and PPARδ transcription factors was measured in these cells by the gel shift technique, as described above.
INTRALIPID® regulates PPARs in vitro. […] The cells were harvested after 1 h, 2 h or 8 h of incubation with INTRALIPID®, the nuclear proteins were extracted and the activity of PPARγ and PPARδ was determined as described in example 6.
Secondly, a solution of INTRALIPID® (50 μg/ml of phospholipids) was added to the culture medium on the 5th day of monocyte differentiation, 15 minutes before the addition of a solution of LPC (40 μM) (“LPC+Intralipid” cells). […] The cells were harvested after 2 h of incubation, the nuclear proteins were extracted and the activity of PPARγ and PPARδ was determined as described in example 6.

Another assay has as its system NF-κB. Particulars: high concentration of LPC (50 μM); cited from earlier work.
A further assay concerns BALB/c mice. The assay is described as follows: Delayed contact hypersensitivity to the hapten DNFB (ear edema). Type of assay: in vivo, mouse. Particulars: 500 nmol LPC on back 10 minutes before DNFB sensitization, 48 h after elicitation. From the text: LPC can induce a CD8+ T lymphocyte response in vivo. In this example, a test for delayed contact hypersensitivity to haptens was used. In this model, BALB/c mice are sensitized by application of a hapten, DNFB (1-fluoro-2,4-dinitrobenzene, 0.5% solution in 1:1 olive oil/acetone), to the back. Five days later, a non-irritant dose of DNFB (0.2% solution in 1:1 olive oil/acetone) is applied to the left ear, whereas the right ear receives the solvent. In this elicitation phase, CD8^+ T lymphocytes specific for the haptenized proteins are recruited and infiltrate the ear, secreting γIFN and producing an edema.
A “control” batch of mice was sensitized with DNFB alone and another batch (“LPC” mice) received 500 nmol of LPC by application to the skin of the back of 20 μl of an ethanolic solution of LPC, 10 minutes before the application of DNFB. Five days later, the two batches were treated in the same way for the elicitation phase and the thickening of the ears was measured using a micrometer 48 h after this application.

Assay [1] relates to monocytes isolated from human peripheral blood. In words: Internalization capacity (endocytosis, pinocytosis, macropinocytosis) of differentiated monocytes. The assay is classed as cell-based. Particulars: control = 100%. Here is the method:
The “control” and “LPC” cells used in this analysis are those obtained after 6 days of differentiation according to the protocol described in example 1. These cells are incubated at 37° C.: • for 30 minutes with 1 mg/ml of FITC-T70-Dextran (Sigma) in order to estimate the capacity of these cells for internalization by endocytosis, • for 30 minutes with 1 mg/ml of Lucifer Yellow (ref. L0259, Sigma, St Quentin-Fallavier, France) in order to estimate the capacity of these cells for internalization by pinocytosis, • for 3 hours with carboxylate-modified yellow-green FluoSpheres (trade name, 0.45 μm, Molecular Probes, Leiden, The Netherlands) in order to estimate the capacity of these cells for internalization by macropinocytosis.
The internalization is stopped on ice with a cold PBS buffer containing 0.1% of BSA (Bovine Serum Albumin) and 0.05% of NaN3. The “control” and “LPC” cells are washed 3 times at 4° C. in this same buffer and the fluorescence is quantified by FACScalibur (trade name, Becton Dickinson).

As for L-α-lysophosphatidylcholine [LPC], the PPARγ binding activity at PPARγ (Table 6, LPC 40 μM, two hours, percentage with respect to control cells) worked out at 0%. In addition, the PPARγ activity on PPARγ (Table 16, Intralipid 50 μg/ml phospholipids 15 minutes before LPC 40 μM, 2 h, control = 100%) was 1%. Moreover, the “Activity of the transcription factor NF-κB” value in the assay with NF-κB is on record as “inhibits”. Besides, the “Thickening of the left ear” value with BALB/c mice (left ear receives DNFB 0.2%) is reported as 149 ± 31 μm. For the same substance, in the assay on BALB/c mice (right ear receives solvent), the “Thickening of the right ear” value is recorded as 0 ± 3 μm. In addition, in assay [1] (FITC-T70-Dextran 30 minutes), the “Capacity for internalization by endocytosis” value amounted to 53%. For the same substance, in assay [1] (FluoSpheres 3 hours), the “Capacity for internalization by macropinocytosis” value was 66%. The “Capacity for internalization by pinocytosis” value in assay [1] (Lucifer Yellow 30 minutes) was 49%.
